Source: article PMC11873239, “A covalent chemical probe for Chikungunya nsP2 cysteine protease with antialphaviral activity and proteome-wide selectivity” (Scientific Reports, 2025)
Where two headings read alike, the source gives them in different places.

What was measured:
Format in all cases: binding
[1] = target: HEK293 cell lysate proteins and CHIKV nsP2 (Homo sapiens, UniProt P26368)
[2] = target: HEK293 cell lysate proteins and CHIKV nsP2 (Homo sapiens, UniProt Q99459)
[3] = target: HEK293 cell lysate proteins and CHIKV nsP2 (Homo sapiens, UniProt Q9UQ35)
[4] = target: HEK293 cell lysate proteins and CHIKV nsP2 (Homo sapiens, UniProt Q9NYF8)
[5] = target: HEK293 cell lysate proteins and CHIKV nsP2 (Homo sapiens, UniProt P14923)
[6] = target: HEK293 cell lysate proteins and CHIKV nsP2 (Homo sapiens, UniProt P21127)
[7] = target: HEK293 cell lysate proteins and CHIKV nsP2 (Homo sapiens, UniProt O60231)
[8] = target: HEK293 cell lysate proteins and CHIKV nsP2 (Homo sapiens, UniProt P06702)
[9] = target: HEK293 cell lysate proteins and CHIKV nsP2 (Homo sapiens, UniProt P05109)
[10] = target: HEK293 cell lysate proteins and CHIKV nsP2 (Homo sapiens, UniProt Q96P63)
[11] = target: HEK293 cell lysate proteins and CHIKV nsP2 (Homo sapiens, UniProt P07355)
[12] = target: HEK293 cell lysate proteins and CHIKV nsP2 (Homo sapiens, UniProt P07339)
Chain of HEK293 cell lysate proteins and CHIKV nsP2 (Homo sapiens, UniProt P07339) (P07339 65-412): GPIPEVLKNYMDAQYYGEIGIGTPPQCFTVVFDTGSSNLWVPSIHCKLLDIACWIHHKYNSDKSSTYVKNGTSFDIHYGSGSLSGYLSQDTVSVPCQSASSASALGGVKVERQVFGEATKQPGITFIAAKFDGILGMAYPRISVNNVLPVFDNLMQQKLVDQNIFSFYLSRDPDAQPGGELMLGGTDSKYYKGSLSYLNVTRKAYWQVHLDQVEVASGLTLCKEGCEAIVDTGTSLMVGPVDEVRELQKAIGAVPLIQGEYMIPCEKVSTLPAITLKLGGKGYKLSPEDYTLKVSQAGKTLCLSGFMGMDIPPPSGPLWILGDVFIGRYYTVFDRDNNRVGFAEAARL

[13] = target: HEK293 cell lysate proteins and CHIKV nsP2 (Homo sapiens, UniProt P04040)
[14] = target: HEK293 cell lysate proteins and CHIKV nsP2 (Homo sapiens, UniProt Q8TEQ6)
[15] = target: HEK293 cell lysate proteins and CHIKV nsP2 (Homo sapiens, UniProt P13639)
[16] = target: HEK293 cell lysate proteins and CHIKV nsP2 (Homo sapiens, UniProt P42357)
Chain of HEK293 cell lysate proteins and CHIKV nsP2 (Homo sapiens, UniProt P42357) (P42357 whole entry): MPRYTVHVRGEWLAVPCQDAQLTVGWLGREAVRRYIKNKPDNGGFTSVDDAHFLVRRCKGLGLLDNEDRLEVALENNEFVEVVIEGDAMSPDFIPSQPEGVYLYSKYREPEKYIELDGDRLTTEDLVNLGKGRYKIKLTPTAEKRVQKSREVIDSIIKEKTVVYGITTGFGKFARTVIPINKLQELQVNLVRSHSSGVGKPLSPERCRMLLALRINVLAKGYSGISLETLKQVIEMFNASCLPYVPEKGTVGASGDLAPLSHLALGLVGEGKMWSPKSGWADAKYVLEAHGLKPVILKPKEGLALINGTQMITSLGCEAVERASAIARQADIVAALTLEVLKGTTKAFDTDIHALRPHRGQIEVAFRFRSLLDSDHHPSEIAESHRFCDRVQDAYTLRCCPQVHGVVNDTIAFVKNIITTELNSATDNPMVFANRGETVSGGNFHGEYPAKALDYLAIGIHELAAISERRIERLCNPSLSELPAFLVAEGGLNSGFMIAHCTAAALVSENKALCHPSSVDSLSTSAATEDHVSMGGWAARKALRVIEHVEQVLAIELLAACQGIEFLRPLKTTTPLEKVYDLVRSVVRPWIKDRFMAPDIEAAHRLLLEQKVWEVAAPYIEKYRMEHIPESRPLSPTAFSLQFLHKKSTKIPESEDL

[17] = target: HEK293 cell lysate proteins and CHIKV nsP2 (Homo sapiens, UniProt Q02413)
[18] = target: HEK293 cell lysate proteins and CHIKV nsP2 (Homo sapiens, UniProt P68104)
Chain of HEK293 cell lysate proteins and CHIKV nsP2 (Homo sapiens, UniProt P68104) (P68104 whole entry): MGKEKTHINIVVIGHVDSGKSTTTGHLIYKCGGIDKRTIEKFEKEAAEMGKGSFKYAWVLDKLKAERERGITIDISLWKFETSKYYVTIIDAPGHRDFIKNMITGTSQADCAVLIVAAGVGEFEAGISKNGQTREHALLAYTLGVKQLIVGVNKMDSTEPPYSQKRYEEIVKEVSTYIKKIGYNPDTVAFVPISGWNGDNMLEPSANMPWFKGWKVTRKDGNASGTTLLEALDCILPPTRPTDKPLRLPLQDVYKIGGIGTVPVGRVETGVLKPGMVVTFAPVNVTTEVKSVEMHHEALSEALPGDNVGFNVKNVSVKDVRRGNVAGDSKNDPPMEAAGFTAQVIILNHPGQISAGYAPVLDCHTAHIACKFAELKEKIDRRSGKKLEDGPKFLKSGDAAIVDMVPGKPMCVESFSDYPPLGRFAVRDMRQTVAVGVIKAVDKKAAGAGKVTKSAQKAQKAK

[19] = target: HEK293 cell lysate proteins and CHIKV nsP2 (Homo sapiens, UniProt P59665)
[20] = target: HEK293 cell lysate proteins and CHIKV nsP2 (Homo sapiens, UniProt Q9Y5B9)
Chain of HEK293 cell lysate proteins and CHIKV nsP2 (Homo sapiens, UniProt Q9Y5B9) (Q9Y5B9 whole entry): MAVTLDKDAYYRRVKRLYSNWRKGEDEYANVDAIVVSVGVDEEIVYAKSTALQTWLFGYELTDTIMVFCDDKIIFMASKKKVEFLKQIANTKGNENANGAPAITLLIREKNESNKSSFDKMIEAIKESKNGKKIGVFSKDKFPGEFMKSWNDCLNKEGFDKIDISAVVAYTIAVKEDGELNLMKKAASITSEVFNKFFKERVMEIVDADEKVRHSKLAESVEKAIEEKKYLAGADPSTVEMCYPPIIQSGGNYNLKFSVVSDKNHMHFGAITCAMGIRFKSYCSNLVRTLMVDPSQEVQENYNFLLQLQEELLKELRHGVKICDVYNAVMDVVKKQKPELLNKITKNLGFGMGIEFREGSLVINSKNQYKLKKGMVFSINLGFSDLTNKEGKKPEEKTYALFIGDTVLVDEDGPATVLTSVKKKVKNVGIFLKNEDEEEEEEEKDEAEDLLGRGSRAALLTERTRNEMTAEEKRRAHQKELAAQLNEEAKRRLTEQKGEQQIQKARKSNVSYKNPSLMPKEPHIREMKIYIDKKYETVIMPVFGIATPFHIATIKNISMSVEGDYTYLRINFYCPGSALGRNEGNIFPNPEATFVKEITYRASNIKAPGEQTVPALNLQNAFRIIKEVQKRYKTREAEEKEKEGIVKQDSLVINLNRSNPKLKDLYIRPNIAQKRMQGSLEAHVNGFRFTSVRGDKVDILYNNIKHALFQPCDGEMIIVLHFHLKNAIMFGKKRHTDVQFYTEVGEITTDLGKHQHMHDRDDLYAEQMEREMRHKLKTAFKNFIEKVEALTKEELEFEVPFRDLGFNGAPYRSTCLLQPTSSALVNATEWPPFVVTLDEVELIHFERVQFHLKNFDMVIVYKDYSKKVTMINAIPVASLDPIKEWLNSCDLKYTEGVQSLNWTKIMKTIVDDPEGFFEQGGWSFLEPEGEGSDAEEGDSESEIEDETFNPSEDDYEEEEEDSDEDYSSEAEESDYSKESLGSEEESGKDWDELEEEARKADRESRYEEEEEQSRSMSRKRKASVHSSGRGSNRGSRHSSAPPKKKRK

[21] = target: HEK293 cell lysate proteins and CHIKV nsP2 (Homo sapiens, UniProt Q15424)
[22] = target: HEK293 cell lysate proteins and CHIKV nsP2 (Homo sapiens, UniProt P22735)
[23] = target: HEK293 cell lysate proteins and CHIKV nsP2 (Homo sapiens, UniProt Q08188)
[24] = target: HEK293 cell lysate proteins and CHIKV nsP2 (Homo sapiens, UniProt O43290)
[25] = target: HEK293 cell lysate proteins and CHIKV nsP2 (Homo sapiens, UniProt P05089)
[26] = target: HEK293 cell lysate proteins and CHIKV nsP2 (Homo sapiens, UniProt P31025)
Chain of HEK293 cell lysate proteins and CHIKV nsP2 (Homo sapiens, UniProt P31025) (P31025 19-176): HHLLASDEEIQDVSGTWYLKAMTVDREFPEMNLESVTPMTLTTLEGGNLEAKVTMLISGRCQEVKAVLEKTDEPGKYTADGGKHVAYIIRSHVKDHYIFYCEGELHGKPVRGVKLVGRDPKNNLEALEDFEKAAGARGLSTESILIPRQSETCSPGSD

[27] = test system: HEK293 cell lysate proteins and CHIKV nsP2; details: protein nsP2 (nsP2_AA993-AA1333_Tags)
[28] = target: HEK293 cell lysate proteins and CHIKV nsP2 (Homo sapiens, UniProt P31944)
[29] = target: HEK293 cell lysate proteins and CHIKV nsP2 (Homo sapiens, UniProt P11388)
Chain of HEK293 cell lysate proteins and CHIKV nsP2 (Homo sapiens, UniProt P11388) (P11388 whole entry): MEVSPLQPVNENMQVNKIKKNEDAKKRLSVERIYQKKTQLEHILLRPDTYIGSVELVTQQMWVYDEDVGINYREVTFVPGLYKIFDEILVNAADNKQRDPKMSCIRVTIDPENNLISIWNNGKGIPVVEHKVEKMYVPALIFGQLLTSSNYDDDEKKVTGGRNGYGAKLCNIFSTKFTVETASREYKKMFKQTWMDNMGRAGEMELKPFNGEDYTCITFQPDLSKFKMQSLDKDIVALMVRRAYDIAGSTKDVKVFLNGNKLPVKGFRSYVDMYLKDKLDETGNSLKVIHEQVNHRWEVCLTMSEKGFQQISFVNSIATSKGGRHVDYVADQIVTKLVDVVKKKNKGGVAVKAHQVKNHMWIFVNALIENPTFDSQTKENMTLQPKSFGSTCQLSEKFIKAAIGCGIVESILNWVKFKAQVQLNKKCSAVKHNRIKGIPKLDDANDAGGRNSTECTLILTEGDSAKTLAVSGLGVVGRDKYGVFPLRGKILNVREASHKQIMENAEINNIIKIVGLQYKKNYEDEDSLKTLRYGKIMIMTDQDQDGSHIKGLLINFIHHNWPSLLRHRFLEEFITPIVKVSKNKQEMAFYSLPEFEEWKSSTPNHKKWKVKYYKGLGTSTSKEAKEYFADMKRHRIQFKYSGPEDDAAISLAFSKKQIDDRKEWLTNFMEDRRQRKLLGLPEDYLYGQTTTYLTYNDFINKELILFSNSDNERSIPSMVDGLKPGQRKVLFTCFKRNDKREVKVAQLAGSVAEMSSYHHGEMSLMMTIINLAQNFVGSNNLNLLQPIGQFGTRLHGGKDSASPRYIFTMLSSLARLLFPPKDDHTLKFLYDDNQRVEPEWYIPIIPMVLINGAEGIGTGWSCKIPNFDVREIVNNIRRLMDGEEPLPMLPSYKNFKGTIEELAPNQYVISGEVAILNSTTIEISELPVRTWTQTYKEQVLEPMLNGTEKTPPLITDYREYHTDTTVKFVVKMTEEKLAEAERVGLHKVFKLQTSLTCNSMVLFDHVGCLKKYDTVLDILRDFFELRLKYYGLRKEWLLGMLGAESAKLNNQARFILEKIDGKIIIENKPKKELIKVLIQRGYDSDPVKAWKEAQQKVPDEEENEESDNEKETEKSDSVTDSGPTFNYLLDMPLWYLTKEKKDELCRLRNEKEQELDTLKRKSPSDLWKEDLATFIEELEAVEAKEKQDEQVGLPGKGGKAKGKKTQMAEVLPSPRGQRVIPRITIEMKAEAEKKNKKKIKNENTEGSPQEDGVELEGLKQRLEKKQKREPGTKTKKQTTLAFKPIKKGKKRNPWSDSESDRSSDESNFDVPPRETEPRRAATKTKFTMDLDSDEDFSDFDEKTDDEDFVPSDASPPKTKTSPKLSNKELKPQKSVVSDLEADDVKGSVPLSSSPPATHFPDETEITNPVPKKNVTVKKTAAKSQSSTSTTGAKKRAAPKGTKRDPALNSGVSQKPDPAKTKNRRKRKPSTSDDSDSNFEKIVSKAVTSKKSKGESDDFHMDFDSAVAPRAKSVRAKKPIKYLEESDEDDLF

[30] = target: HEK293 cell lysate proteins and CHIKV nsP2 (Homo sapiens, UniProt Q96QA5)
[31] = target: HEK293 cell lysate proteins and CHIKV nsP2 (Homo sapiens, UniProt Q3YEC7)
[32] = target: HEK293 cell lysate proteins and CHIKV nsP2 (Homo sapiens, UniProt Q92616)
[33] = target: HEK293 cell lysate proteins and CHIKV nsP2 (Homo sapiens, UniProt P27816)
[34] = target: HEK293 cell lysate proteins and CHIKV nsP2 (Homo sapiens, UniProt Q99549)
Chain of HEK293 cell lysate proteins and CHIKV nsP2 (Homo sapiens, UniProt Q99549) (Q99549 whole entry): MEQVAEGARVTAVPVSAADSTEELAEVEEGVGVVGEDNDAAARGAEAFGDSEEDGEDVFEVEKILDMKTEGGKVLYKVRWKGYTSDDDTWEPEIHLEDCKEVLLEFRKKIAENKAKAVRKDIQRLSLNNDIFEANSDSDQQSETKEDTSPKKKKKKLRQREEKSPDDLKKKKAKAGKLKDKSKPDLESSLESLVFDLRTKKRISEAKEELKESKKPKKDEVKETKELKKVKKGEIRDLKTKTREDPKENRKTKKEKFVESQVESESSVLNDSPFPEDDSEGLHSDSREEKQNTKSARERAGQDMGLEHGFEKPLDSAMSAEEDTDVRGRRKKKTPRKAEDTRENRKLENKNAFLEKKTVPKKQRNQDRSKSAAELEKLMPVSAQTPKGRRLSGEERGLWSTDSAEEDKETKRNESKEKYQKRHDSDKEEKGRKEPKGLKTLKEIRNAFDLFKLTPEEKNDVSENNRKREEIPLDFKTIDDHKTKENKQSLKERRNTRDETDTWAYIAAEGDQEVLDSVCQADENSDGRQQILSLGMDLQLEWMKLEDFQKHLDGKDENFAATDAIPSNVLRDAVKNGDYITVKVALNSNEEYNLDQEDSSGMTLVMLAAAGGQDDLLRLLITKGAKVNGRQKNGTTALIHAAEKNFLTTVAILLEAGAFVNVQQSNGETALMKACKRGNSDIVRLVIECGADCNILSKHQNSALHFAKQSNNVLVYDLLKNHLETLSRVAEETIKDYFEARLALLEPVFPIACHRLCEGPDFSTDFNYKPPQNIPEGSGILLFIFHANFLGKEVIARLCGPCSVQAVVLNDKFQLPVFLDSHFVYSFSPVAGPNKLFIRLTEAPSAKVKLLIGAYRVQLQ

[35] = target: HEK293 cell lysate proteins and CHIKV nsP2 (Homo sapiens, UniProt P11142)
[36] = target: HEK293 cell lysate proteins and CHIKV nsP2 (Homo sapiens, UniProt Q9BQG0)

`C#CCOc1ccccc1-c1cc(C(=O)NC/C=C/S(C)(=O)=O)on1` [VS, (E)-N-(3-(methylsulfonyl)allyl)−3-(2-(prop-2-yn-1-yloxy)phenyl)isoxazole-5-carboxamide] showed a Log2 fold change [1] of -0.62, a Log2 fold change [2] of -0.00878 and a Log2 fold change [3] of 0.25. For the same compound, the Log2 fold change [4] was -0.75, the Log2 fold change [5] was 1.97 and the Log2 fold change [6] was 0.12. The Log2 fold change [7] was 4.33, the Log2 fold change [8] was 1.63 and the Log2 fold change [9] was 1.58. It also gave a Log2 fold change [10] of 1.71, a Log2 fold change [11] of 1.52 and a Log2 fold change [12] of 1.67. The Log2 fold change [13] was 1.41, the Log2 fold change [14] was -0.32 and the Log2 fold change [15] was 1.35. It also gave a Log2 fold change [16] of 1.12, a Log2 fold change [17] of 1.36 and a Log2 fold change [18] of 0.56. The Log2 fold change [19] was -2.83, the Log2 fold change [20] was -3.45 and the Log2 fold change [21] was 1.46. It also gave a Log2 fold change [22] of 1.60, a Log2 fold change [23] of 1.61 and a Log2 fold change [24] of 0.62. For the same compound, the Log2 fold change [25] was 1.79, the Log2 fold change [26] was 1.54 and the Log2 fold change [27] was 1.03. For the same compound, the Log2 fold change ([27]; sheet nsP2 spike) was 7.13, the Log2 fold change [28] was 1.29 and the Log2 fold change [29] was -1.34. For the same compound, the Log2 fold change [30] was 1.51, the Log2 fold change [31] was -2.27 and the Log2 fold change [32] was -2.86. For the same compound, the Log2 fold change [33] was -0.37, the Log2 fold change [34] was 0.0737 and the Log2 fold change [35] was 1.15. The Log2 fold change [36] was -0.66.
